Assay results taken from US5958947A, “DNA-affinic hypoxia selective cytotoxins” (priority 1996, dated 1999).
Where “and” joins values, the source holds several entries; their conditions need not be identical. Equal entries are not always repeated. Entries after “also recorded” stand apart in the source; their conditions may differ. Structures can show the parent of a compound that is named as a salt. Where two headings read alike, the source gives them in different places.

What was measured:
[1] = biological target: T1, calf thymus Topo I (Bos taurus, UniProt F1MN93); experiment: Topoisomerase I interaction (relaxation of supercoiled DNA); assay type: biochemical; conditions: for IC100: 0.5 h; for IC50: Topo I inhibition (50%)-dose, Topo I-induced relaxation of supercoiled DNA
T1 construct: purchased TopoGEN, Inc., Columbus, Ohio; host or cells: calf thymus
T1 sequence (F1MN93 1-767): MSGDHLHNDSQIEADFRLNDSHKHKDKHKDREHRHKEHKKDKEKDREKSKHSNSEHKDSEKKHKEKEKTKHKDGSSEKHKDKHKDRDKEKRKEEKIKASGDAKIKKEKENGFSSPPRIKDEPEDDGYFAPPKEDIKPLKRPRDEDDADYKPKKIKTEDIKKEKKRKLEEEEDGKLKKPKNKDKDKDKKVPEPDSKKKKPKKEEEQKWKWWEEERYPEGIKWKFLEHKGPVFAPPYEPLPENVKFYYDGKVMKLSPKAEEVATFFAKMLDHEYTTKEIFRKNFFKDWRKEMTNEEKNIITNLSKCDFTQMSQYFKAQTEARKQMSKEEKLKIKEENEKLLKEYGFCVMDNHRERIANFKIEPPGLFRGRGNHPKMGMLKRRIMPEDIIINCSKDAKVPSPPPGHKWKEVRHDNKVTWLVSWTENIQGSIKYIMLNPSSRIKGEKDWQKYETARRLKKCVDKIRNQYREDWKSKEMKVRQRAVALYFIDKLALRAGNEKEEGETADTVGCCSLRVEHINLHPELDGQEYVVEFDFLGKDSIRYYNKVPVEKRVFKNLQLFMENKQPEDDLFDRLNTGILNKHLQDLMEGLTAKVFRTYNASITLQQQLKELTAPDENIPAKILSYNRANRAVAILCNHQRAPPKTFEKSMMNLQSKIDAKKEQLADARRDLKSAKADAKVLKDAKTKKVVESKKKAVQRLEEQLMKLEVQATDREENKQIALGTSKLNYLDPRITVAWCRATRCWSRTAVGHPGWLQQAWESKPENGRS
Experimental: In particular, a Topo I drug screening kit (TopoGEN, Inc., Columbus, Ohio) was used to assay the topoisomerase I THNLA-1 interaction. […] Camptothecin is a Topoisomerase I poison used as an anticancer drug. Camptothecin stabilizes the Topo I-DNA cleavable complex, and therefore prevents the resealing of DNA by Topo-I.
Individual reaction mixtures were heated for 30 minutes at 37° C. on a heating block, and then 2 μl of 10% SDS - proteinase K solution was added to each reaction mixture. The resulting reaction mixtures then were heated for an additional 30 minutes at 37° C. The reaction mixtures in a loading buffer were extracted with CHCl3 prior to submarine electrophoresis on a 1% agarose gel. The DNA bands were observed visually by staining with ethidium bromide (0.5 μg/ml).

[2] = tested on: V79 cells; experiment: Chemosensitization to L-PAM or cis-DDP in V79 cells; assay type: cell-based, Chinese hamster; conditions: for chemosensitization to L-PAM or cis-DDP: V79 cells
Experimental: L-PAM, also known as phenylalanine mustard and available from Sigma Chem. Co., St. Louis, Mo., first was dissolved in an ethanolic solution of HCl (0.5N). The ethanolic HCl solution was buffered with propylene glycol in a 1:9 ratio of ethanolic HCl solution to propylene glycol, and finally diluted 100 fold with suspension medium. cis-DDP, a platinum-based chemotherapeutic agent available from Sigma Chem. Co., St. Louis, Mo., was dissolved in water to a predetermined concentration.
Experiments using a simultaneous addition of the sensitizer and chemotherapeutic agent for 1 hour at 37° C. under aerobic conditions were also performed.
In all experiments, controls for the hypoxic cytotoxicity of the sensitizer and the toxicity of the chemotherapeutic alone were included. Survival curves were normalized for the hypoxic cytotoxicity of sensitizer in order to determine the dose modification factor (DMF), i.e., the ratio of chemotherapeutic agent concentrations required to reduce cell survival to a predetermined level (e.g., 0.5) alone or in combination with a sensitizer. Synergism between the chemotherapeutic agent and the chemosensitizer was determined using the fractional product concept which is applied in instances of independent action of drugs, or by isobologramic analysis. The results of the chemosensitization studies are illustrated in FIGS. 12-15.

[3] = Water solubility
[4] = tested on: V79 Chinese hamster lung cells; experiment: Radiosensitization of V79 cells; assay type: cell-based; conditions: for maximum SER value: hypoxic V79 cells, 100 μM for THNLA-1, non-toxic concentrations for others
Experimental: Samples of V79 Chinese hamster lung cells used in the following experiments were prepared as follows. V79 cells, exponentially growing as monolayer cultures in RPMI 1640 medium (Mediatech) supplemented with 10% fetal calf serum, were trypsinized, centrifuged for 5 min, harvested, then suspended in 25 ml Erlenmeyer flasks fitted with rubber caps at 5×10^5 cells/ml (5 ml). Individual flasks either were shaken (100 rpm) at 37° C. under aerobic conditions or made hypoxic by gassing with a 95% N2 (nitrogen)/5% CO2 (carbon dioxide) humidified gas mixture for 1 hour.
Radiosensitization studies were performed on V79 cells in a manner similar to the acute toxicity experiments, except that the survival fraction was determined after a predetermined radiation dose. […] One Gy is equal to 100 rads, wherein one rad is the quantity of ionizing radiation that results in the absorption of 100 ergs of energy per gram of irradiated material. Hypoxia was maintained throughout irradiation. […] Sensitization enhancement ratios (SER) were determined at a 10% survival level. […] The plotted points in FIGS. 3 and 4 represent the mean of 2 or 3 replicate experiments.

[5] = tested on: V79 cells; experiment: Isoeffective to the oxygen dose (IsD); assay type: cell-based, Chinese hamster; conditions: Cricetulus griseus; for EC (isoeffective to oxygen at 7.5 Gy): read-out: Isoeffective to the oxygen dose at 7.5 Gy: IsD(7.5); for EC (isoeffective to oxygen at 20 Gy): read-out: Isoeffective to the oxygen dose at 20 Gy: IsD
Source text: The survival fraction under hypoxic conditions (plotted versus compound concentration) meets the aerobic survival fraction (radiation toxicity) at the IsD. The IsD value is a useful indicator of the overall potency of a compound as a sensitizer and cytotoxin of hypoxic cells. IsD is especially useful when comparing different compounds for hypoxic cytotoxicity and radiosensitizing efficacy.
FIGS. 5 and 6 illustrate the IsD at 7.5 Gy (FIG. 5A) and 20 Gy (FIG. 5B). FIGS. 5A and 6A include a comparison to the prior art NLA-1 compound. V79 cells were irradiated at 7.5 Gy or 20 Gy after a 1 hour exposure under hypoxia (symbols) or air (straight line), at various drug concentrations. No toxicity or radiosensitization for any tested compound was observed under aerobic conditions over the tested concentration ranges. IsD values were calculated from the intersections of the survival fractions of the hypoxic curves with the survival fraction in air. All data points in FIGS. 5 and 6 represent the mean of two replicate experiments.

In the case of `O=[N+]([O-])c1nccn1CCCNc1c2c(nc3ccccc13)CCSC2` [S-THNLA-1, 10-[3-(2-nitroimidazolyl)propylamino]-3,4-dihydro-1-H-thiopyrano[4,3-b]quinoline hydrochloride], the IC100 ([1]; read-out: concentration for complete inhibition of Topo I) is reported as about 800 µM, the IC50 [1] is reported as about 800 µM and the “formation of nicked DNA with Topo I” value ([1]; in Topo I test) is reported as “some nicked DNA also was observed”. For the same molecule, the “chemosensitization to L-PAM or cis-DDP” value [2] was “strong chemosensitizers”, the solubility [3] was about 9.5 mM and the EC (SER 1.6) ([4]; Cricetulus griseus, V79, 1 h, read-out: Hypoxic radiosensitizing potency: C1.6, concentration yielding an SER of 1.6, hypoxic V79 cells) was 40 to 45 µM. For the same molecule, the EC (SER 1.6) ([4]; Cricetulus griseus, V79, read-out: Intracellular concentration at C1.6: C1.6i, hypoxic radiosensitization, V79 cells (tables)) was 932 µM, the EC (SER 1.6) ([4]; concentration yielding an SER of 1.6, hypoxic V79 cells, hydrochloride, read-out: Hypoxic radiosensitizing potency: C1.6) was 40 µM and the “maximum SER value” [4] was “equal to OER”. The “therapeutic index relative to NLA-1” value ([4]; in vitro ThI) was “better therapeutic index than NLA-1”, the “Therapeutic index (ThI): IC50/A,1h /C1.6” value ([4]; in vitro, V79 cells) was “about 15” and the EC (isoeffective to oxygen at 7.5 Gy) ([5]; V79, 1 h) was 60 µM. The EC (isoeffective to oxygen at 20 Gy) ([5]; V79, 1 h) was about 103 µM.

For `Cl.O=[N+]([O-])c1nccn1CCCNc1c2c(nc3ccccc13)CCCC2` [THNLA-1, 9-[3-(2-nitro-1-imidazolyl)propylamino]-1,2,3,4-tetrahydroacridine hydrochloride], the “Topo I-dependent single-stranded DNA cleavage” value [1] was “not observed”, the IC100 ([1]; read-out: complete inhibition of Topo I not observed up to) was over 1000 µM and the IC50 [1] was ~600 µM and 600 µM. For the same molecule, the “inhibition of Topo I-induced relaxation” value ([1]; supercoiled DNA) was “inhibits Topo I-induced relaxation of supercoiled DNA, but at significantly higher concentrations than NLA-type compounds”, the “concentration at which inhibition of Topo I starts” value ([1]; supercoiled DNA relaxation) was 100 µM and the “DMF value of L-PAM at 0.5 survival fraction” value ([2]; 10 μM THNLA-1, 2 hours hypoxic pretreatment, then L-PAM 1 hour aerobic) was 3.2. For the same molecule, the “DMF value of cis-DDP at 0.5 survival fraction” value ([2]; 15 μM THNLA-1, 2 hours hypoxic pretreatment, then cis-DDP 1 hour aerobic) was 4.2, the “chemosensitization to L-PAM or cis-DDP” value ([2]; hydrochloride) was “powerful potentiator of chemotherapeutic agent toxicity; also recorded: strong chemosensitizers” and the “potentiation of L-PAM or cis-DDP under aerobic conditions” value ([2]; aerobic exposure) was “no potentiation occurred”. For the same molecule, the “DMF compared with NLA-1” value ([2]; cis-DDP or L-PAM combination, about 30% of the IC50/H,1h, hydrochloride) was “slightly greater than the DMF value obtained using a combination including NLA-1; also recorded: significantly more efficacious chemosensitizer than NLA-1”, the “interaction with L-PAM or cis-DDP” value ([2]; hypoxic pretreatment, isobologram and fractional product concept, hydrochloride) was “synergistic interaction; also recorded: dramatic decrease in survival fraction; also recorded: unexpected synergistic effect” and the solubility [3] was about 12 mM. For the same molecule, the “radiosensitization of hypoxic V79 cells” value ([4]; 1 hour at 37° C. before irradiation, hypoxic) was “Significant radiosensitization”, the EC (SER 1.6) ([4]; Cricetulus griseus, 1 h, concentration yielding an SER of 1.6, hypoxic V79 cells, read-out: Hypoxic radiosensitizing potency: C1.6) was 19 µM and the EC (SER 1.6) ([4]; Cricetulus griseus, hypoxic radiosensitization, V79 cells (tables), read-out: Intracellular concentration at C1.6: C1.6i) was 443 µM. For the same molecule, the EC (SER 1.6) ([4]; Cricetulus griseus, hypoxic radiosensitization, V79 cells, read-out: Intracellular concentration for an SER of 1.6: C1.6i) was 443 µM, the “radiosensitization when administered immediately after irradiation” value ([4]; V79 cells (hypoxic conditions), hydrochloride) was “radiosensitization also was not observed; also recorded: No radiosensitization was observed” and the “radiosensitization under aerobic conditions” value ([4]; V79 cells, aerobic) was “Radiosensitization was not observed”. For the same molecule, the “radioprotection under aerobic conditions” value ([4]; aerobic) was “no radioprotection occurred”, the “maximum SER value” [4] was 3.1 and the EC (isoeffective to oxygen at 7.5 Gy) ([5]; V79, 1 h, 7.5 Gy, 1 hour at 37° C.) was about 40 µM. The EC (isoeffective to oxygen at 20 Gy) ([5]; V79, 20 Gy, 1 hour at 37° C.) was about 78 µM.
